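Five concentrations, 48 hours, 96-well plates. GI50 = concentration required for 50% inhibition of growth. Definition used: TGI = concentration required for complete inhibition of growth.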
Columns and labels:
Experiment in all cases: DTP human tumour cell line panel, 48 h
NCI-H522 lung = system: NCI-H522 lung
A498 renal = system: A498 renal
DU-145 prostate = system: DU-145 prostate
SK-MEL-28 melanoma = system: SK-MEL-28 melanoma
HCT-15 colon = system: HCT-15 colon
RXF 393 renal = system: RXF 393 renal
ACHN renal = system: ACHN renal
MALME-3M melanoma = system: MALME-3M melanoma
786-0 renal = system: 786-0 renal
T-47D breast = system: T-47D breast
UACC-62 melanoma = system: UACC-62 melanoma
LOX IMVI melanoma = system: LOX IMVI melanoma
IGROV1 ovarian = system: IGROV1 ovarian
NCI/ADR-RES ovarian = system: NCI/ADR-RES ovarian
SNB-19 CNS = system: SNB-19 CNS
TK-10 renal = system: TK-10 renal
MOLT-4 leukemia = system: MOLT-4 leukemia
HL-60(TB) leukemia = system: HL-60(TB) leukemia
OVCAR-3 ovarian = system: OVCAR-3 ovarian
SK-MEL-5 melanoma = system: SK-MEL-5 melanoma
SW-620 colon = system: SW-620 colon
HT29 colon = system: HT29 colon
HCC-2998 colon = system: HCC-2998 colon
A549 NSCLC = system: A549 NSCLC
MCF7 breast = system: MCF7 breast
EKVX NSCLC = system: EKVX NSCLC
HS 578T breast = system: HS 578T breast
UACC-257 melanoma = system: UACC-257 melanoma
MDA-MB-231 breast = system: MDA-MB-231 breast
K-562 leukemia = system: K-562 leukemia
SK-MEL-2 melanoma = system: SK-MEL-2 melanoma
SK-OV-3 ovarian = system: SK-OV-3 ovarian
SR leukemia = system: SR leukemia
UO-31 renal = system: UO-31 renal
SF-295 CNS = system: SF-295 CNS
COLO 205 colon = system: COLO 205 colon
MDA-MB-435 = system: MDA-MB-435
NCI-H226 lung = system: NCI-H226 lung
OVCAR-8 ovarian = system: OVCAR-8 ovarian
KM12 colon = system: KM12 colon
SNB-75 CNS = system: SNB-75 CNS
SF-539 CNS = system: SF-539 CNS
NCI-H460 lung = system: NCI-H460 lung
SN12C renal = system: SN12C renal
M14 melanoma = system: M14 melanoma
CCRF-CEM leukemia = system: CCRF-CEM leukemia
SF-268 CNS = system: SF-268 CNS
NCI-H23 lung = system: NCI-H23 lung
OVCAR-5 ovarian = system: OVCAR-5 ovarian
BT-549 breast = system: BT-549 breast
RPMI-8226 leukemia = system: RPMI-8226 leukemia
U251 CNS = system: U251 CNS
PC-3 prostate = system: PC-3 prostate
HOP-92 NSCLC = system: HOP-92 NSCLC

SMILES: CCOC(=O)Nc1ccc(-c2nc(-c3cccc(OC)c3)c(-c3ccnc(Br)c3)[nH]2)cc1
- GI50 (NCI-H522 lung): 2.73 µM
- TGI (NCI-H522 lung): 9.16 µM
- GI50 (A498 renal): 1.94 µM
- TGI (A498 renal): 7.06 µM
- GI50 (DU-145 prostate): 3.24 µM
- TGI (DU-145 prostate): > 100 µM
- GI50 (SK-MEL-28 melanoma): 2.8 µM
- TGI (SK-MEL-28 melanoma): > 100 µM
- GI50 (HCT-15 colon): 1.68 µM
- TGI (HCT-15 colon): 5.45 µM
- GI50 (RXF 393 renal): 0.712 µM
- TGI (RXF 393 renal): 2.94 µM
- GI50 (ACHN renal): 2.62 µM
- TGI (ACHN renal): > 100 µM
- GI50 (MALME-3M melanoma): 1.98 µM
- TGI (MALME-3M melanoma): 5.73 µM
- GI50 (786-0 renal): 2.16 µM
- TGI (786-0 renal): > 100 µM
- GI50 (T-47D breast): 1.96 µM
- TGI (T-47D breast): 6.47 µM
- GI50 (UACC-62 melanoma): 1.89 µM
- TGI (UACC-62 melanoma): 4.18 µM
- GI50 (LOX IMVI melanoma): 1.56 µM
- TGI (LOX IMVI melanoma): 3.32 µM
- GI50 (IGROV1 ovarian): 2.69 µM
- TGI (IGROV1 ovarian): 9.03 µM
- GI50 (NCI/ADR-RES ovarian): 2.35 µM
- TGI (NCI/ADR-RES ovarian): 7.73 µM
- GI50 (SNB-19 CNS): 2.96 µM
- TGI (SNB-19 CNS): > 100 µM
- GI50 (TK-10 renal): 3.88 µM
- TGI (TK-10 renal): > 100 µM
- GI50 (MOLT-4 leukemia): 2.21 µM
- TGI (MOLT-4 leukemia): > 100 µM
- GI50 (HL-60(TB) leukemia): 2.34 µM
- TGI (HL-60(TB) leukemia): 7.41 µM
- GI50 (OVCAR-3 ovarian): 2.82 µM
- TGI (OVCAR-3 ovarian): 8.44 µM
- GI50 (SK-MEL-5 melanoma): 1.83 µM
- TGI (SK-MEL-5 melanoma): 3.43 µM
- GI50 (SW-620 colon): 3.19 µM
- TGI (SW-620 colon): > 100 µM
- GI50 (HT29 colon): 3.45 µM
- TGI (HT29 colon): > 100 µM
- GI50 (HCC-2998 colon): 2.25 µM
- TGI (HCC-2998 colon): 6.23 µM
- GI50 (A549 NSCLC): 3.07 µM
- TGI (A549 NSCLC): > 100 µM
- GI50 (MCF7 breast): 2.13 µM
- TGI (MCF7 breast): 7.18 µM
- GI50 (EKVX NSCLC): 2.45 µM
- TGI (EKVX NSCLC): 8.8 µM
- GI50 (HS 578T breast): 1.68 µM
- TGI (HS 578T breast): 6.15 µM
- GI50 (UACC-257 melanoma): 2.68 µM
- TGI (UACC-257 melanoma): 7.9 µM
- GI50 (MDA-MB-231 breast): 3.27 µM
- TGI (MDA-MB-231 breast): > 100 µM
- GI50 (K-562 leukemia): 2.76 µM
- TGI (K-562 leukemia): > 100 µM
- GI50 (SK-MEL-2 melanoma): 2.58 µM
- TGI (SK-MEL-2 melanoma): 6.69 µM
- GI50 (SK-OV-3 ovarian): 3.9 µM
- TGI (SK-OV-3 ovarian): > 100 µM
- GI50 (SR leukemia): 2.88 µM
- TGI (SR leukemia): > 100 µM
- GI50 (UO-31 renal): 2.19 µM
- TGI (UO-31 renal): 7.75 µM
- GI50 (SF-295 CNS): 0.416 µM
- TGI (SF-295 CNS): 2.93 µM
- GI50 (COLO 205 colon): 3.23 µM
- TGI (COLO 205 colon): > 100 µM
- GI50 (MDA-MB-435): 2.73 µM
- TGI (MDA-MB-435): 9.54 µM
- GI50 (NCI-H226 lung): 2.21 µM
- TGI (NCI-H226 lung): 7.78 µM
- GI50 (OVCAR-8 ovarian): 2.98 µM
- TGI (OVCAR-8 ovarian): > 100 µM
- GI50 (KM12 colon): 2.51 µM
- TGI (KM12 colon): 9.06 µM
- GI50 (SNB-75 CNS): 2.14 µM
- TGI (SNB-75 CNS): > 100 µM
- GI50 (SF-539 CNS): 1.76 µM
- TGI (SF-539 CNS): 4.56 µM
- GI50 (NCI-H460 lung): 2.79 µM
- TGI (NCI-H460 lung): 8.41 µM
- GI50 (SN12C renal): 2.77 µM
- TGI (SN12C renal): > 100 µM
- GI50 (M14 melanoma): 2.4 µM
- TGI (M14 melanoma): 7.5 µM
- GI50 (CCRF-CEM leukemia): 2.75 µM
- TGI (CCRF-CEM leukemia): > 100 µM
- GI50 (SF-268 CNS): 3.26 µM
- TGI (SF-268 CNS): > 100 µM
- GI50 (NCI-H23 lung): 2 µM
- TGI (NCI-H23 lung): 4.75 µM
- GI50 (OVCAR-5 ovarian): 3.56 µM
- TGI (OVCAR-5 ovarian): > 100 µM
- GI50 (BT-549 breast): 2.19 µM
- TGI (BT-549 breast): 8.11 µM
- GI50 (RPMI-8226 leukemia): 0.794 µM
- TGI (RPMI-8226 leukemia): 3.49 µM
- GI50 (U251 CNS): 2.44 µM
- TGI (U251 CNS): > 100 µM
- GI50 (PC-3 prostate): 2.52 µM
- TGI (PC-3 prostate): 8.9 µM
- GI50 (HOP-92 NSCLC): 2.36 µM
- TGI (HOP-92 NSCLC): 7.69 µM
